Consider five substances from patent publication US20100075343A1, “NOVEL PEPTIDES” (priority 2007, published 2010).

The test system of assay [1] is hypothalamic cells of the apoaequorin-expressing mice. Nature of the assay: Intracellular calcium ion increase (aequorin luminescence), hypothalamus. The format is cell-based, mouse. Conditions: for increase of intracellular calcium concentration in hypothalamic cells (RLU per second): 5 μmol/L peptide, added at 25 seconds; for luminescence (intracellular calcium ion increase) in hypothalamus: peptide at final concentrations of 1 μmol/L and 5 μmol/L. The method, then:
(§1) A hypothalamus, pituitary gland, kidney, heart, blood vessel, or a portion of brain tissue is collected from transgenic mice systemically expressing apoaequorin (WO02/010371) produced by introducing an apoaequorin gene expression vector into fertilized eggs. The obtained hypothalamus, pituitary gland, kidney, heart, blood vessel, or brain tissue is cut finely into pieces, suspended in a medium containing coelenterazine, and then incubated to incorporate coelenterazine into the cells to form aequorin (a complex of apoaequorin and coelenterazine). Since aequorin luminesces upon binding to intracellular calcium ions, the relative luminescence level in cells before and after addition of a medium containing the peptide or a pharmaceutically acceptable salt thereof is measured in a luminometer every second over time and is used as an indicator of intracellular calcium ion concentration. Increase in the relative luminescence level due to addition of the peptide or pharmaceutically acceptable salt thereof confirms that the peptide or pharmaceutically acceptable salt thereof has the activity to increase intracellular calcium ion concentration.
(§2) Whether Peptides 1 to 8 synthesized in Example 2 have the activity of increasing intracellular calcium ion concentration was investigated using the organs of transgenic mice introduced with the apoaequorin gene and systemically expressing apoaequorin (hereinafter referred to as apoaequorin-expressing mice). In apoaequorin-expressing mouse cells, light is emitted when apoaequorin binds to a calcium ion in the presence of the luminescent substrate coelenterazine and thus the intracellular calcium ion concentration can be monitored. Patent Document (WO02/010371) discloses the method for producing apoaequorin-expressing mice, method for evaluating biologically active substances that use biological samples derived from the mice, and experimental results of evaluating biologically active peptides using the mouse organs as shown below. […] Therefore, apoaequorin-expressing mice can be used in the evaluation of the physiological activities of novel peptides.
(§3) Apoaequorin-expressing mice were produced according to the method disclosed in Reference Example 4 of Patent Document (WO02/010371). The apoaequorin-expressing mice were sacrificed, individual organs including thymus, hypothalamus, spleen, bone, aorta, heart, kidney, adrenal gland, pancreas, pituitary gland, uterus, medulla oblongata, and spinal cord were removed; and each of the organs was cut into small cubes of approximately 1 to 2 mm^3. Next, in 5-mL tubes (Rohren-Tubes; manufactured by Sarstedt, No. 55.476), three portions of each of the prepared organs were added to 50 μL of a 10 μmol/L solution of coelenterazine (manufactured by Molecular Probes) dissolved in RPMI 1640 medium, and these were cultured at 37° C. for three hours. After culturing, RPMI 1640 medium was added, and then Peptides 1 to 5 dissolved in RPMI 1640 medium were added 25 seconds after the addition of RPMI 1640 until each peptide had final concentrations of 1 μmol/L and of 5 μmol/L, and the relative luminescence levels were measured every second immediately after the addition of RPMI 1640 medium by using a luminometer (AutoLumat LB953, manufactured by Berthold).
Background: Calcium assays in cells follow changes in intracellular calcium, usually with a dye or a luminescent sensor.

The subject of assay [2] is pituitary cells of the apoaequorin-expressing mice. The assay is described as follows: Intracellular calcium ion increase (aequorin luminescence), pituitary gland. The format is cell-based, mouse. To be noted: for increase of intracellular calcium concentration in pituitary cells (RLU per second): added at 25 seconds; for luminescence (intracellular calcium ion increase) in pituitary gland: peptide at final concentrations of 1 μmol/L and 5 μmol/L. The protocol:
as §1, §2, §3

The test system of assay [3] is medulla oblongata of apoaequorin-expressing mice. Nature of the assay: Intracellular calcium ion increase (aequorin luminescence), medulla oblongata. The format is cell-based, mouse. Conditions: peptide at final concentrations of 1 μmol/L and 5 μmol/L. The method, then: as §1, §2, §3
The test system of assay [4] is cardiac cells of the apoaequorin-expressing mice. Nature of the assay: Intracellular calcium ion increase (aequorin luminescence), heart. To be noted: for increase of intracellular calcium concentration in cardiac cells (RLU per second): 5 μmol/L peptide, added at 25 seconds; for luminescence (intracellular calcium ion increase) in heart: peptide at final concentrations of 1 μmol/L and 5 μmol/L. Type of assay: cell-based, mouse. The protocol: as §1, §2, §3

The test system of assay [5] is kidney cells of the apoaequorin-expressing mice. Nature of the assay: Intracellular calcium ion increase (aequorin luminescence), kidney. To be noted: for increase of intracellular calcium concentration in kidney cells (RLU per second): 1 μmol/L peptide, added at 25 seconds; for luminescence (intracellular calcium ion increase) in kidney: peptide at final concentrations of 1 μmol/L and 5 μmol/L. The format is cell-based, mouse. The method, then:
as §1, §2, §3

For assay [6], the system named is spleen of apoaequorin-expressing mice. Nature of the assay: Intracellular calcium ion increase (aequorin luminescence), spleen. Type of assay: cell-based, mouse. To be noted: peptide at final concentrations of 1 μmol/L and 5 μmol/L. The method, then:
as §1, §2
(§4) Apoaequorin-expressing mice were produced according to the method disclosed in Reference Example 4 of Patent Document (WO02/010371). […] After culturing, RPMI 1640 medium was added, and then Peptides 1 to 5 dissolved in RPMI 1640 medium were added 25 seconds after the addition of RPMI 1640 until each peptide had final concentrations of 1 μmol/L and of 5 μmol/L, and the relative luminescence levels were measured every second immediately after the addition of RPMI 1640 medium by using a luminometer (AutoLumat LB953, manufactured by Berthold).

Assay [7] relates to uterus of apoaequorin-expressing mice. The assay is described as follows: Intracellular calcium ion increase (aequorin luminescence), uterus. Type of assay: cell-based, mouse. To be noted: peptide at final concentrations of 1 μmol/L and 5 μmol/L. The protocol:
(§5) A hypothalamus, pituitary gland, kidney, heart, blood vessel, or a portion of brain tissue is collected from transgenic mice systemically expressing apoaequorin (WO02/010371) produced by introducing an apoaequorin gene expression vector into fertilized eggs. The obtained hypothalamus, pituitary gland, kidney, heart, blood vessel, or brain tissue is cut finely into pieces, suspended in a medium containing coelenterazine, and then incubated to incorporate coelenterazine into the cells to form aequorin (a complex of apoaequorin and coelenterazine). Since aequorin luminesces upon binding to intracellular calcium ions, the relative luminescence level in cells before and after addition of a medium containing the peptide or a pharmaceutically acceptable salt thereof is measured in a luminometer every second over time and is used as an indicator of intracellular calcium ion concentration. Increase in the relative luminescence level due to addition of the peptide or pharmaceutically acceptable salt thereof confirms that the peptide or pharmaceutically acceptable salt thereof has the activity to increase intracellular calcium ion concentration. […]

Assay [8] deals with spinal cord of apoaequorin-expressing mice. Nature of the assay: Intracellular calcium ion increase (aequorin luminescence), spinal cord. The format is cell-based, mouse. Conditions: peptide at final concentrations of 1 μmol/L and 5 μmol/L. The protocol: as §5
For assay [9], the system named is thymus of apoaequorin-expressing mice. Nature of the assay: Intracellular calcium ion increase (aequorin luminescence), thymus. Type of assay: cell-based, mouse. To be noted: peptide at final concentrations of 1 μmol/L and 5 μmol/L. The method, then: as §1, §2, §4
Assay [10] has as its system aortic cells of the apoaequorin-expressing mice. Nature of the assay: Intracellular calcium ion increase (aequorin luminescence), aorta. The format is cell-based, mouse. The method, then:
as §1, §2, §4

Assay [11] concerns antiserum against ESPGPERVW peptide of human VGF. The format is binding. To be noted: 1, 10, and 100 pmol of the peptides. The method, then: Namely, to 100 μL of antiserum diluted 9×10^5 folds with RIA buffer, 100 μL of RIA buffer containing a fixed amount of [^125I]-labeled Peptide 1 (approximately 20000 cpm, 500-550 Bq, approximately 9 fmol in terms of peptide amount) and 100 μL of RIA buffer solutions each containing a sequentially diluted VGF-derived peptide were added, this was incubated at 4° C. for 40 hours, and the labeled Peptide 1 and VGF-derived peptide were competitively bound to the antibody in the antiserum. As controls, reactions that use RIA buffer instead of the antiserum to measure non-specific binding, and reactions that use RIA buffer instead of VGF-derived peptide solutions to measure the maximum binding level were carried out. Reactions for non-specific binding were performed in quadruplicates, and the other reactions were performed in duplicates, and for each of the reactants, the immune complex was precipitated as in the above-mentioned antibody titer measurements, and its radioactivity (cpm) was measured. The average radioactivity of non-specific binding reaction is defined as non-specific binding level N, the radioactivity value for each VGF-derived peptide addition reaction is defined as Y, and the radioactivity value of maximum binding reaction is defined as Z. The percentage ratio (B/B0) of antiserum specific binding level (B) with peptide addition to the maximum binding level (B0), was determined using the following formula.
B/B0(%)={(Y−N)/(Z−N)}×100
Accordingly, the amount of peptide that achieves 50% B/B0, more specifically, the amount of peptide that yields 50% inhibition of the maximum binding level, was used as an indicator of the peptide binding activity to the antiserum.

For assay [12], the system named is uterus of apoaequorin-expressing mice. Conditions: final concentration of 1 μmol/L; reported in WO02/010371; cited from earlier work.
Assay [13] has as its system blood vessels of apoaequorin-expressing mice. To be noted: final concentration of 1 μmol/L; reported in WO02/010371; cited from earlier work.
The subject of assay [14] is adrenal glands of apoaequorin-expressing mice. To be noted: final concentration of 1 μmol/L; reported in WO02/010371; cited from earlier work.
For assay [15], the system named is rats fed with high-calorie diets. To be noted: administered into the rat ventricle, Non-patent Document 6; cited from earlier work.
A further assay concerns male rats. Conditions: direct administration to the PVN of male rats; Non-patent Document 7; cited from earlier work.

For “Peptide 5: amino acid sequence at position 211 to 236 in rat VGF (ASWGEFQARVPERAPLPPSVPSQFQA; synthetic Peptide 5, VGF-related peptide, rat VGF positions 211-236)”, in assay [1], the “increase of intracellular calcium concentration in hypothalamic cells (RLU per second)” value is listed as “increase of intracellular calcium concentration” and the “luminescence (intracellular calcium ion increase) in hypothalamus” value is given as “luminescence was observed”. Further, the “increase of intracellular calcium concentration in pituitary cells (RLU per second)” value in assay [2] (5 μmol/L peptide) was “increase of intracellular calcium concentration”. Moreover, the “luminescence (intracellular calcium ion increase) in pituitary gland” value in [2] is reported as “luminescence was observed”. The “luminescence (intracellular calcium ion increase) in medulla oblongata” value in [3] is “luminescence was observed”. In addition, in assay [4], the “increase of intracellular calcium concentration in cardiac cells (RLU per second)” value is “increase of intracellular calcium concentration” and the “luminescence (intracellular calcium ion increase) in heart” value is listed as “luminescence was observed”. In addition, in assay [5], the “increase of intracellular calcium concentration in kidney cells (RLU per second)” value is reported as “increase of intracellular calcium concentration” and the “luminescence (intracellular calcium ion increase) in kidney” value is “luminescence was observed”. In assay [6], the “luminescence (intracellular calcium ion increase) in spleen” value is listed as “luminescence was observed”. Also, in assay [7], the “luminescence (intracellular calcium ion increase) in uterus” value is “luminescence was observed”. Moreover, the “luminescence (intracellular calcium ion increase) in spinal cord” value in assay [8] is “luminescence was observed”.

In the case of “Peptide 6: amino acid sequence at position 353 to 372 in rat VGF (GLQETQQERENEREEEAEQE; synthetic Peptide 6, VGF-related peptide, rat VGF positions 353-372)”, in [1], the “increase of intracellular calcium concentration in hypothalamic cells (RLU per second)” value is given as “increase of intracellular calcium concentration” and the “luminescence (intracellular calcium ion increase) in hypothalamus” value is on record as “luminescence was observed”. Moreover, the “increase of intracellular calcium concentration in pituitary cells (RLU per second)” value in assay [2] (5 μmol/L peptide) is “increase of intracellular calcium concentration”. Besides, the “luminescence (intracellular calcium ion increase) in pituitary gland” value in assay [2] is “luminescence was observed”. Further, the “luminescence (intracellular calcium ion increase) in thymus” value in assay [9] was “luminescence was observed”. Moreover, in [3], the “luminescence (intracellular calcium ion increase) in medulla oblongata” value is given as “luminescence was observed”. Further, the “luminescence (intracellular calcium ion increase) in heart” value in assay [4] is “luminescence was observed”. In assay [5], the “increase of intracellular calcium concentration in kidney cells (RLU per second)” value is “increase of intracellular calcium concentration” and the “luminescence (intracellular calcium ion increase) in kidney” value is on record as “luminescence was observed”. Moreover, the “luminescence (intracellular calcium ion increase) in spleen” value in [6] is “luminescence was observed”. In addition, in [7], the “luminescence (intracellular calcium ion increase) in uterus” value was “luminescence was observed”. Further, in [10] (1 μmol/L peptide, added at 25 seconds), the “increase of intracellular calcium concentration in aortic cells (RLU per second)” value is “increase of intracellular calcium concentration”. Further, the “luminescence (intracellular calcium ion increase) in aorta” value in assay [10] (peptide at final concentrations of 1 μmol/L and 5 μmol/L) was “luminescence was observed”.

For “Peptide 8: amino acid sequence at position 423 to 430 in rat VGF (SQEEAPGH; synthetic Peptide 8, VGF-related peptide, rat VGF positions 423-430)”, in assay [2] (1 μmol/L peptide), the “increase of intracellular calcium concentration in pituitary cells (RLU per second)” value is listed as “increase of intracellular calcium concentration”. Also, the “luminescence (intracellular calcium ion increase) in pituitary gland” value in [2] was “luminescence was observed”. Further, the “luminescence (intracellular calcium ion increase) in thymus” value in assay [9] was “luminescence was observed”. The “luminescence (intracellular calcium ion increase) in medulla oblongata” value in assay [3] is “luminescence was observed”. Besides, in [4], the “increase of intracellular calcium concentration in cardiac cells (RLU per second)” value is listed as “increase of intracellular calcium concentration” and the “luminescence (intracellular calcium ion increase) in heart” value is “luminescence was observed”. Besides, the “luminescence (intracellular calcium ion increase) in spleen” value in [6] was “luminescence was observed”. Further, in assay [8], the “luminescence (intracellular calcium ion increase) in spinal cord” value was “luminescence was observed”.

For the substance “angiotensin II (DRVYIHPF) [non-VGF peptide]”, the “inhibition of binding of the antiserum to labeled peptide” value in [11] was “none of these peptides showed inhibition”. Further, the luminescence in uterus result in assay [12] is reported as “strong luminescence was observed”. Also, the “luminescence in blood vessels” value in assay [13] was “strong luminescence was observed”. The “luminescence in adrenal glands” value in [14] is listed as “strong luminescence was observed”.

Consider “rat VGF (556-576): known peptide, positions 556-576 of the rat VGF amino acid sequence”, for which, in assay [15], the “suppression of weight gain” value is “activity of suppressing weight gain”. For the same substance, the erection inducing activity entry with male rats is recorded as “this activity was not observed”.
